From patent US20250186433A1, “ACSS2 INHIBITORS AND METHODS OF USE THEREOF” (EpiVario, Inc., priority 2017, published 2025) come the findings set out here.

Read-outs that look alike come from different tables or passages of the source. Where only a bound is given, the exact number is not on record here.

The target of test [1] is ACSS2 (Homo sapiens, UniProt Q9NR19). The test can be described thus: Binding to recombinant ACSS2 protein by Label Free MST. The conditions noted are these: for Kd: read-out: Kd [uM] Fluorescence. The source says: Binding of ACSS2 inhibitor to recombinant ACSS2 protein by Label Free MST. MicroScale Thermophoresis (MST) is an optical fluorescent method that records the changes in fluorescence of a target molecule as a function of temperature and the concentration of the cognate ligand molecule. The binding of small-molecules to the target proteins lead to changes in the fluorescence that can be measured and translated into binding Kd.

For test [2], the target named is T1, ACSL5 (Homo sapiens, UniProt Q9ULC5).
T1 construct: purchased Cusabio, China
T1 sequence (Q9ULC5 1-683): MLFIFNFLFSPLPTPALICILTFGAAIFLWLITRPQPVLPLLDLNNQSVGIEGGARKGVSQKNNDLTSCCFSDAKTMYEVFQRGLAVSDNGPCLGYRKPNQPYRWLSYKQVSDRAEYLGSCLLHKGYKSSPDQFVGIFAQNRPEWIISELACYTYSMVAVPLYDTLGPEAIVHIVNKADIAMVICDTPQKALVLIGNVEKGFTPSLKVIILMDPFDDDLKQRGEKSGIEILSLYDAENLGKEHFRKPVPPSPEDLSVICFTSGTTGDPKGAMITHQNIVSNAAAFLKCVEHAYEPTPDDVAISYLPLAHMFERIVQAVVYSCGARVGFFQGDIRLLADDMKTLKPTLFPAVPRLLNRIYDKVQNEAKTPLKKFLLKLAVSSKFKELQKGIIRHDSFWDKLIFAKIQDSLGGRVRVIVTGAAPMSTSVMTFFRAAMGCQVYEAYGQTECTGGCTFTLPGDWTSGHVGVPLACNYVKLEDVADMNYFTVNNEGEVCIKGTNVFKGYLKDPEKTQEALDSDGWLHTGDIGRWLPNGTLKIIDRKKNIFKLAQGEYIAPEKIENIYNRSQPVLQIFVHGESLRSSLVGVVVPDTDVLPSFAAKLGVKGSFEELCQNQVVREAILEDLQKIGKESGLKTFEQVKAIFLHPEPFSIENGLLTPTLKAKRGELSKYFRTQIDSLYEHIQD
The test can be described thus: Acyl-CoA synthetases selectivity panel: ACSL5. Format: biochemical. The settings on record: human recombinant protein, substrate palmitate, AMP readout by HPLC; read-out: HPLC based activity assays IC50 (UM) ACSL5. The source says:
The biochemical assays for testing the selectivity of the compounds according to this invention, were done using human recombinant proteins (Cusabio, China). The readout of the assays was AMP levels, the […] of the reactions, by HPLC method. The acyl substrates (Sigma-Aldrich) of the assays were as followed: ACSS1/ACSS2—Acetate, AACS-Acetoacetyl, ACSF2—Octanoate and ACSL5—Palmitate. The protein in this panel include ACSS1, the closest homolog of ACSS2, in addition to representative short/medium/long chain acyl-CoA syntatases.

Sequence of ACSS2 (Q9NR19 whole entry): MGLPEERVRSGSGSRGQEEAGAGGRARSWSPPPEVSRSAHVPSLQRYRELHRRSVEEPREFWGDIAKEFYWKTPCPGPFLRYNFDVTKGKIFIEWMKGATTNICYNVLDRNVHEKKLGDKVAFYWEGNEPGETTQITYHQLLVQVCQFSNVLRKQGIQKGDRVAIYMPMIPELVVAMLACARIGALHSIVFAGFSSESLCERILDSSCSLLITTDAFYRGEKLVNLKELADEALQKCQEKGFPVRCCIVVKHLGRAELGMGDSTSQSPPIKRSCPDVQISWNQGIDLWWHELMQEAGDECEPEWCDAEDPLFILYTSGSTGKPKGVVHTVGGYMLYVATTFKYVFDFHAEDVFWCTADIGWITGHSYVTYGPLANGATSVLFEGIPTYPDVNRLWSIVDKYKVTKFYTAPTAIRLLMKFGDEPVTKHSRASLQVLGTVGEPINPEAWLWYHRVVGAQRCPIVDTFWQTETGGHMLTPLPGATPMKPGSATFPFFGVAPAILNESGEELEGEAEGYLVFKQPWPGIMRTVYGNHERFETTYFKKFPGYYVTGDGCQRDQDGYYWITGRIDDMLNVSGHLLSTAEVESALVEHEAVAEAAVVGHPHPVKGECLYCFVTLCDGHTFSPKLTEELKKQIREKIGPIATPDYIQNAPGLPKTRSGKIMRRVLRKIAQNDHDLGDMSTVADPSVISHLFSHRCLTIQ

For the compound `COC(=O)c1cccc(N2N=C(C)C(C(=O)Nc3cccc(C(C)(F)F)c3)C2=O)c1` (stereo not drawn) [compound 261, methyl 3-(4-((3-(1,1-difluoroethyl)phenyl)carbamoyl)-3-methyl-5-oxo-4,5-dihydro-1H-pyrazol-1-yl)benzoate], the Kd in test [1] (Buffer A (no ATP, no CoA)) worked out at 0.46 ± 0.21 µM; in test [1] (Buffer B (+ATP), 0.3 mM ATP), 0.03 ± 0.01 µM; in test [1] (Buffer C (+ATP, +CoA), 0.3 mM ATP, 0.01 mM CoA), 0.04 ± 0.02 µM; in test [1] (Buffer D (+CoA), 0.01 mM CoA), 0.61 ± 0.17 µM. The “reduction of binding Kd when ATP was added to the buffer” value in test [1] (Label Free MST) is on record as 10 fold. Besides, the half-inhibitory concentration (IC50) in test [2] is over 100000 nM.

What is called Kd is the equilibrium constant for the complex coming apart. For orientation: IC50 means the concentration at which inhibition is half-maximal.
